The text below walks through data of ChEMBL document CHEMBL1201862, “PubChem BioAssay data set” (2004).

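48-hour exposure; five concentrations; linearly interpolated endpoints. GI50 is the concentration that inhibits growth by half.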 Activity calls are given as the source filed them. No stated cut-off is given here; in the data, active = GI50 up to about 1.1 µM and inactive = higher.

Some test systems named below: NCI-H522; K562; SR; OVCAR-4; A549; OVCAR-8; RXF 393; HT-29; SK-MEL-2; PC-3; RPMI-8226; OVCAR-3; EKVX; HOP-62; MDA-MB-231; DU-145; SF-539; Hs-578T; HCC 2998; CAKI-1.
Common to all, as to test: NCI tumour cell line growth inhibition, 48 h

On to `Cc1cc2c(c(O)c1-c1c(C)cc(O)c3c1C(=O)C=CC3=O)C(=O)C=CC2=O`, for which the GI50 in the assay on NCI-H522 is 0.136 µM (active); in the assay on K562, 0.0337 µM (active); with SR, 0.043 µM (active); in the assay on OVCAR-4, 3 µM (inactive); in the assay on A549, 17.7 µM (inactive); with OVCAR-8, 1.95 µM (inactive). Moreover, the GI50 with RXF 393 was 0.757 µM (active); with HT-29, 1.58 µM (inactive); with SK-MEL-2, 10 µM (inactive); with PC-3 it was 4.02 µM (inactive); in the assay with RPMI-8226, 0.226 µM (active); in the assay on OVCAR-3 it was 2.08 µM (inactive). The GI50 in the assay on EKVX is 1.59 µM (inactive); with HOP-62 it was 20.3 µM (inactive); with MDA-MB-231 it was 2 µM (inactive); in the assay on DU-145 it was 2.19 µM (inactive); with SF-539, 2.88 µM (inactive); in the assay with Hs-578T, 3.07 µM (inactive). Further, the GI50 in the assay on HCC 2998 was 3.13 µM (inactive); with CAKI-1 it was 0.631 µM (active).
On to `Cc1ccc(S[C@@H](C)[C@@](O)(C(N)=O)c2ccccc2)cc1`, for which the GI50 is 16.7 µM (inactive) in the assay on NCI-H522; 15 µM (inactive) in the assay with K562; > 10 µM (inactive) in the assay with SR; 21 µM (inactive) in the assay with OVCAR-4; 42.1 µM (inactive) in the assay on A549; 38.5 µM (inactive) in the assay with OVCAR-8. Also, the GI50 in the assay with RXF 393 was 86.1 µM (inactive); in the assay on HT-29, 41.3 µM (inactive); in the assay on SK-MEL-2, 39.4 µM (inactive); in the assay with PC-3, 35.4 µM (inactive); in the assay on RPMI-8226, 21.7 µM (inactive); with OVCAR-3, > 100 µM (inactive). The GI50 in the assay with EKVX was 13.9 µM (inactive); with HOP-62, 23.6 µM (inactive); with MDA-MB-231, 19.2 µM (inactive); in the assay with DU-145 it was 72.9 µM (inactive); in the assay on SF-539, 25.6 µM (inactive); with Hs-578T, > 100 µM (inactive). For the same compound, the GI50 with HCC 2998 is > 100 µM (inactive); with CAKI-1, 16.6 µM (inactive).
For `COC(=O)c1ccccc1CC1Cc2ccc3c(c2C1)CCC3` (stereo not given), the GI50 was 17.7 µM (inactive) in the assay on NCI-H522; 29.6 µM (inactive) in the assay with K562; 5.38 µM (inactive) in the assay with SR; 24.2 µM (inactive) with OVCAR-4; 30.3 µM (inactive) in the assay with A549; 34.5 µM (inactive) in the assay on OVCAR-8. Besides, the GI50 with RXF 393 is 19.1 µM (inactive); in the assay on HT-29, 20 µM (inactive); with SK-MEL-2, 15.6 µM (inactive); in the assay on PC-3, 29.2 µM (inactive); with RPMI-8226, 18.1 µM (inactive); in the assay on OVCAR-3, 31.3 µM (inactive). Also, the GI50 with EKVX was 17.3 µM (inactive); in the assay on HOP-62, 38.9 µM (inactive); in the assay with MDA-MB-231, 19.5 µM (inactive); in the assay with DU-145 it was 45.1 µM (inactive); in the assay on SF-539, 56.2 µM (inactive); in the assay with Hs-578T it was 37 µM (inactive). Also, the GI50 is 23.8 µM (inactive) with HCC 2998 and 45.5 µM (inactive) in the assay on CAKI-1.
Consider `COC1=C2CC(C)CC(OC)[C@@H](OC(=O)CCN)[C@H](C)/C=C(\C)C(OC(N)=O)C(OC)/C=C\C=C(/C)C(=O)NC(=CC1=O)C2=O` (stereo not given in full), for which the GI50 is 0.255 µM (active) in the assay on NCI-H522; 0.269 µM (active) in the assay on K562; 1.26 µM (inactive) in the assay on SR; 3.03 µM (inactive) with OVCAR-4; 15.7 µM (inactive) in the assay with A549; 1.9 µM (inactive) in the assay on OVCAR-8. Besides, the GI50 in the assay with RXF 393 is 1.56 µM (inactive); in the assay on HT-29 it was 0.465 µM (active); with SK-MEL-2, 9.06 µM (inactive); with PC-3 it was 4.06 µM (inactive); with RPMI-8226, 0.871 µM (active); with OVCAR-3, 0.843 µM (active). Moreover, the GI50 in the assay on EKVX was 12 µM (inactive); in the assay on HOP-62 it was 6.38 µM (inactive); with MDA-MB-231 it was 1.99 µM (inactive); in the assay with DU-145 it was 8.57 µM (inactive); with SF-539 it was 4.4 µM (inactive); in the assay on Hs-578T, 3.73 µM (inactive). Besides, the GI50 with HCC 2998 is 1.91 µM (inactive); in the assay on CAKI-1, 4.6 µM (inactive).
Consider `COC(=O)/C=C\C(C#N)(C#N)/N=C/c1ccc(C)s1`, for which the GI50 in the assay on NCI-H522 is 0.713 µM (active); in the assay with K562, 0.998 µM (active); with SR it was 2.08 µM (inactive); in the assay with OVCAR-4, 3.78 µM (inactive); in the assay on A549, 18.4 µM (inactive); in the assay with OVCAR-8 it was 3.69 µM (inactive). The GI50 with RXF 393 is 1.46 µM (inactive); with HT-29, 1.51 µM (inactive); in the assay on SK-MEL-2, 5.48 µM (inactive); in the assay on PC-3, 2.63 µM (inactive); in the assay on RPMI-8226, 1.9 µM (inactive); with OVCAR-3, 3.94 µM (inactive). Moreover, the GI50 in the assay on EKVX was 5.31 µM (inactive); in the assay with HOP-62 it was 14.9 µM (inactive); in the assay on MDA-MB-231, 5.61 µM (inactive); in the assay on DU-145, 4.48 µM (inactive); in the assay with SF-539 it was 4.63 µM (inactive); in the assay on Hs-578T it was 21.8 µM (inactive). Further, the GI50 in the assay with HCC 2998 was 17.7 µM (inactive); in the assay with CAKI-1, 1.94 µM (inactive).
On to `Nc1nc(Cl)c(N)c(NCC2(CO)CC(O)C2)n1` (stereo not given), for which the GI50 in the assay on NCI-H522, with K562, in the assay on SR, with OVCAR-4, in the assay on A549 and in the assay on OVCAR-8 was > 100 µM (inactive) throughout. For the same compound, the GI50 with RXF 393, in the assay with HT-29, with SK-MEL-2, in the assay on PC-3, with RPMI-8226 and with OVCAR-3 was > 100 µM (inactive) throughout. Besides, the GI50 with EKVX, in the assay with HOP-62, in the assay on MDA-MB-231, in the assay with DU-145, in the assay with SF-539 and with Hs-578T was > 100 µM (inactive) each time. Besides, the GI50 in the assay with HCC 2998 is 46.3 µM (inactive); in the assay with CAKI-1, > 100 µM (inactive).
Turning to `COC(=O)CCCCC/C(=C\C(=O)C(Cl)(Cl)Cl)OC`, the GI50 was 16.6 µM (inactive) in the assay with NCI-H522; 26.8 µM (inactive) in the assay with K562; 18.1 µM (inactive) with SR; 19.5 µM (inactive) with OVCAR-4; 45.6 µM (inactive) in the assay on A549; 25.4 µM (inactive) in the assay on OVCAR-8. Moreover, the GI50 in the assay on RXF 393 is 16.7 µM (inactive); in the assay on HT-29 it was 30.5 µM (inactive); in the assay on SK-MEL-2, 22.2 µM (inactive); with PC-3, 27.8 µM (inactive); in the assay on RPMI-8226 it was 20.4 µM (inactive); in the assay with OVCAR-3 it was 26.6 µM (inactive). Also, the GI50 with EKVX was 24.7 µM (inactive); in the assay with HOP-62, 33.7 µM (inactive); with MDA-MB-231, 80 µM (inactive); in the assay with DU-145 it was 25.5 µM (inactive); in the assay with SF-539, 18.6 µM (inactive); with Hs-578T, 26.4 µM (inactive). The GI50 with HCC 2998 is 15.9 µM (inactive); in the assay with CAKI-1 it was 30.8 µM (inactive).
